7 compounds from patent US10172868B2, “Substituted quinazolines for inhibiting kinase activity” (NeuPharma, Inc., priority 2013, dated 2019) can be followed below.

Assay [1] concerns the target EGFR (ErbB1) (Homo sapiens (Human), UniProt P00533). Description: Z'-LYTE kinase inhibition assay, EGFR. To be noted: for IC50: read-out: IC50 against EGFR; for inhibition at 0.041 µM: read-out: % inhibition against EGFR (Compound at 0.041 μM). It is filed as biochemical. Summed up: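 Z'-LYTE FRET assay run with 1.1-5.25 ng EGFR and 2 μM peptide substrate in 50 mM HEPES pH 7.5, 10 mM MgCl2, 2 mM MnCl2, 1 mM EGTA, 1 mM DTT, 0.01% BRIJ-35, 1% DMSO. Kinase reaction 60 min at room temperature, then 60 min development; IC50 from 10-point 3-fold titrations.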

Assay [2] deals with EGFR (ErbB1) T790M L858R (Homo sapiens (Human), UniProt P00533, L858R/T790M). Description: Z'-LYTE kinase inhibition assay, EGFR L858R/T790M. It is filed as biochemical. To be noted: for IC50: read-out: IC50 against EGFR L858R/T790M; for inhibition at 0.0137 µM: read-out: % inhibition against EGFR L858R/T790M (Compound at 0.0137 μM). Summed up:
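Z'-LYTE FRET peptide assay at 1% DMSO, 10-point 3-fold titrations; kinase/peptide mix in 50 mM HEPES pH 6.5, 0.01% BRIJ-35, 10 mM MgCl2, 1 mM EGTA, 0.02% NaN3. Kinase reaction ran 60 min at room temperature, followed by 60 min development and a fluorescence read. IC50 derived from the concentration series.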

The target in assay [3] is BTK (Homo sapiens (Human), UniProt Q06187). Description: Z'-LYTE kinase inhibition assay, BTK. It is filed as biochemical. To be noted: read-out: IC50 against BTK. The method, then: Inhibitory activities of compounds against BTK, EGFR and EGFR mutants (EGFR L858R, EGFR T790M, EGFR L858R/T790M), FGFR1, FGFR2, JAK2, JAK3 and KDR were measured by Invitrogen using Z'-LYTE® Method as briefly described in the following.
Test Compounds are screened in 1% DMSO (final) in the well. For 10 point titrations, 3-fold serial dilutions are conducted from the starting concentration. All ATP Solutions are diluted to a 4× working concentration in Kinase Buffer (50 mM HEPES pH 7.5, 0.01% BRIJ-35, 10 mM MgCl2, 1 mM EGTA). Peptide/Kinase Mixtures are diluted to a 2× working concentration in the appropriate Kinase Buffers as described below.
(v) Peptide/Kinase Mixtures for Measurement of BTK:
The 2×BTK/Tyr 01 mixture is prepared in 50 mM HEPES pH 7.5. 0.01% BRIJ-35, 10 mM MgCl2, 1 mM EGTA.
The mixture is then incubated for another 60-minute at room temperature for development reaction. Finally fluorescence is read by plate reader.
To determine IC50 of a compound against EGFR, EGFR mutant and other kinases, a series of concentrations of the compound were tested for the inhibition. […] The scale utilized in Table 4 is as follows: +++ less than 100 nM, ++ 100-500 nM and + greater than 500 nM.

In assay [4] the test system is A431 cells. Description: cells. As to conditions: Homo sapiens, A-431, 72 h, read-out: IC50 in A431 cells.
Assay [5] relates to H3255 cells. Description: Inhibition of cancer cell growth, MTT assay, H3255. As to conditions: Homo sapiens, NCI-H3255, 72 h, read-out: IC50 in H3255 cells.
The subject of assay [6] is H1975 cells. Description: Inhibition of cancer cell growth, MTT assay, H1975. As to conditions: Homo sapiens, NCI-H1975, 72 h, read-out: IC50 in H1975 cells. A general note: Tetrazolium dyes change colour on reduction, which living cells bring about.
For assay [7], the system named is H1975 tumor xenografts. Description: Inhibition of tumor growth in H1975 xenograft model. As to conditions: 30 mg/kg, Intraperitoneal injection, QD x 14; for Tumor Volume Pre-treatment: baseline before treatment. The assay is classed as in vivo, BALB/c female nude mice. On the procedure: H1975 cells were implanted in BALB/c female nude mice and grown as tumor xenografts. When tumors achieved 120-200 mm^3, mice were assigned into treatment and control groups using randomized block design based upon their tumor volumes. Each group contained 6 tumor-bearing mice. Tumors were measured twice weekly in two dimensions using a caliper, and the tumor volume was calculated from two-dimensional measurements using the equation V=0.5×a×b^2 where a and b are the long and short diameters of the tumor, respectively. Relative tumor volume (RTV) was defined as TVt/TVi, the ratio of the volume on a given day (TVt) and the volume at the start of treatment (TVi). Relative tumor growth rate (T/C) was defined as RTVT/RTVC, the ratio of relative tumor volume of treatment group (RTVT) and relative tumor volume of control group (RTVC) on a given day.

Assay [8] relates to HCC827 cells. Description: cells. To be noted: Homo sapiens, HCC827, 72 h, read-out: IC50 in HCC827 cells.

Molecules are shown by their SMILES.

Sequence of EGFR (ErbB1) (P00533 25-1210): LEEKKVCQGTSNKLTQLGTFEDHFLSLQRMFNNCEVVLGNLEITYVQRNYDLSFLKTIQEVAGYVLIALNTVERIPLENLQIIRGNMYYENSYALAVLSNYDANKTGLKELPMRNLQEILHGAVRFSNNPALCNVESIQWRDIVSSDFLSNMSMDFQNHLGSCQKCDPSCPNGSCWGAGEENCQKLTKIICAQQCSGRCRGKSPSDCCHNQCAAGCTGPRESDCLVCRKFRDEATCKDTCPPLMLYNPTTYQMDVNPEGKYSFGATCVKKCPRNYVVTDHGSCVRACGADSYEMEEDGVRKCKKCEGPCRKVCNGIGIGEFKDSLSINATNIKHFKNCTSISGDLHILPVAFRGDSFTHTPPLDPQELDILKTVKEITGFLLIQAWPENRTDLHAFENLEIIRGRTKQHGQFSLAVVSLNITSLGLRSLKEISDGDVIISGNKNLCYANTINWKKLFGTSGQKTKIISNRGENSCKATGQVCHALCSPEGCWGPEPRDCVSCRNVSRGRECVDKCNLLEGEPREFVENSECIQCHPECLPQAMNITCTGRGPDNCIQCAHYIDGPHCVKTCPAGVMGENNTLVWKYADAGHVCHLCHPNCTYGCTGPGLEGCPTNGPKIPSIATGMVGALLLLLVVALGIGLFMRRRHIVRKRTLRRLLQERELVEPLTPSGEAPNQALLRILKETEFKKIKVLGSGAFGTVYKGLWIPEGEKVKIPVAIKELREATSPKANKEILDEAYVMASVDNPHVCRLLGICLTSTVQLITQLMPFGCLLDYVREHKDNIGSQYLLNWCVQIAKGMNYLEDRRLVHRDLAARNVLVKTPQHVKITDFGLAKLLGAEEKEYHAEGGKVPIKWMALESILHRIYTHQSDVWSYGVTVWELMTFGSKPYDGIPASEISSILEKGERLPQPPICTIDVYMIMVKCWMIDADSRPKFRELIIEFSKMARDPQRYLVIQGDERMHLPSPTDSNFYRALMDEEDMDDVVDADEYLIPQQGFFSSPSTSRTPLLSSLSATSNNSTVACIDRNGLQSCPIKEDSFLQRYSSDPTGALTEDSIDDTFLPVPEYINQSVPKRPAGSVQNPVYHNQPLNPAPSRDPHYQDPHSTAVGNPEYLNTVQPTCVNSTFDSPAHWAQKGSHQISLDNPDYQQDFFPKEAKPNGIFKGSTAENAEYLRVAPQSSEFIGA
Sequence of BTK (Q06187 whole entry): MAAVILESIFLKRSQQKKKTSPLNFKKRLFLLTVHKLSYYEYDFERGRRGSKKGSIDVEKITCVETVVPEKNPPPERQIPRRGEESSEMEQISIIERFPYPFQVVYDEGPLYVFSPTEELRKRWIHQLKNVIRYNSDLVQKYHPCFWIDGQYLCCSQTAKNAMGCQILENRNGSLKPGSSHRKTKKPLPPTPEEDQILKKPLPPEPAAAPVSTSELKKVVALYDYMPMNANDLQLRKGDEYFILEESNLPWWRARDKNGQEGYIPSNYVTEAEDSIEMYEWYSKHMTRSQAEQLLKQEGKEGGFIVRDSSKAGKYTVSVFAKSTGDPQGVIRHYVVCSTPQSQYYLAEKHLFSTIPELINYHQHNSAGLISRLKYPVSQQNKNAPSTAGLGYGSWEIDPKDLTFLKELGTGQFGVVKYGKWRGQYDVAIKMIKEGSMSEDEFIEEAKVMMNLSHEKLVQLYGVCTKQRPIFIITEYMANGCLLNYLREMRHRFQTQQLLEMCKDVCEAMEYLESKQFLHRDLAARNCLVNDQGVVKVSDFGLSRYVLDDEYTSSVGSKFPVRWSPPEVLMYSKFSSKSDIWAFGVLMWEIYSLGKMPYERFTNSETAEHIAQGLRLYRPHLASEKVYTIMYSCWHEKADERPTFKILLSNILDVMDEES
Sequence of EGFR (ErbB1) T790M L858R (P00533 25-1210 T790M/L858R): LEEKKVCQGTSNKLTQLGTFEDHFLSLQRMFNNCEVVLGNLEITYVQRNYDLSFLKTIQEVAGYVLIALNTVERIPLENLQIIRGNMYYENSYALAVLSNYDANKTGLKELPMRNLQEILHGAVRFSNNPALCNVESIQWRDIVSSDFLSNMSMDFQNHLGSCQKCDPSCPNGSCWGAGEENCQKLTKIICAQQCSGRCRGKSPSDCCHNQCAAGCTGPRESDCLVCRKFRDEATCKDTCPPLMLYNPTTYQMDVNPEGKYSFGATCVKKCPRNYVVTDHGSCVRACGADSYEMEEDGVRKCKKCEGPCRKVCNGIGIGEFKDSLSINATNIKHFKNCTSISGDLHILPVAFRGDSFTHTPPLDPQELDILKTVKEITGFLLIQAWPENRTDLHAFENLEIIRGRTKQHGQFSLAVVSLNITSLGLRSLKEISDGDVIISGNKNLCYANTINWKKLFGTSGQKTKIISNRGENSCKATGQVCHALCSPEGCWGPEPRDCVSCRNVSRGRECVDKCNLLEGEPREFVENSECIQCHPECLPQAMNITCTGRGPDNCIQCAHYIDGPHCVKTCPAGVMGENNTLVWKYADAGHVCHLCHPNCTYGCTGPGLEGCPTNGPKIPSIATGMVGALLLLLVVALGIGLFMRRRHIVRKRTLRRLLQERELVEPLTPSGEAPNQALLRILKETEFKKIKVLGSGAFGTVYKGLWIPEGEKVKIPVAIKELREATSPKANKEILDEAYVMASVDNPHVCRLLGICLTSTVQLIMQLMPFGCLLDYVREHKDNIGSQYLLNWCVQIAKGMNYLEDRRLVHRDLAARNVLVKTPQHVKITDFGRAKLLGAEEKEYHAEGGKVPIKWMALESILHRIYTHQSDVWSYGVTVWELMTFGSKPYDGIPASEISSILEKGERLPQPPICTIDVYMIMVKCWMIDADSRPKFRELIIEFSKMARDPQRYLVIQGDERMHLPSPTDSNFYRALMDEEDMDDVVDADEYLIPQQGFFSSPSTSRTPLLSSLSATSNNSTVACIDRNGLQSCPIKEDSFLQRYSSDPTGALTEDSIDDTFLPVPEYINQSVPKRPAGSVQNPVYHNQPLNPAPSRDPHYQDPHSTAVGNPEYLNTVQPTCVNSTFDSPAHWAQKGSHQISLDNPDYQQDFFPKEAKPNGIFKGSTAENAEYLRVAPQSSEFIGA

For the compound `C=CC(=O)Nc1cccc(-c2cccc3cnc(Nc4ccc(N5CCN(C)CC5=O)cc4)nc23)c1` [Example C106, N-(3-(2-((4-(4-methyl-2-oxopiperazin-1-yl)phenyl)amino)quinazolin-8-yl)phenyl)acrylamide], the IC50 in assay [1] was more than 500 nM; in assay [2] it was less than 100 nM; in assay [3], less than 100 nM; in assay [4], less than 100 nM; in assay [5], 100 to 500 nM; in assay [6], less than 100 nM.

With `C=CC(=O)Nc1cccc(-c2cccc3cnc(Nc4ccc(NC5CN(CCF)C5)cc4)nc23)c1` [Example C103, N-(3-(2-((4-((1-(2-fluoroethyl)azetidin-3-yl)amino)phenyl)amino)quinazolin-8-yl)phenyl)acrylamide], in assay [1], the inhibition at 0.041 µM is less than 50%. Moreover, in assay [2], the inhibition at 0.0137 µM is more than 50% and the IC50 is less than 100 nM. Moreover, in assay [7], the “T/C (relative tumor growth rate)” value was 35.8%, the “Tumor Volume Post-treatment” value stood at 748.7 mm^3 and the “Tumor Volume Pre-treatment” value is listed as 150.9 mm^3. For the same compound, the IC50 in assay [4] is less than 100 nM. For the same compound, the IC50 in assay [5] was 100 to 500 nM. In assay [6], the IC50 was less than 100 nM.

In the case of `C=CC(=O)Nc1cccc(-c2cccc3cnc(Nc4ccc(N5CCN(CC(C)(C)O)CC5)cc4)nc23)c1` [Example C145, N-(3-(2-((4-(4-(2-hydroxy-2-methylpropyl)piperazin-1-yl)phenyl)amino)quinazolin-8-yl)phenyl)acrylamide], the inhibition at 0.041 µM in assay [1] is less than 50%. In addition, the inhibition at 0.0137 µM in assay [2] is more than 50%. Moreover, the IC50 in assay [2] was less than 100 nM; in assay [4], 100 to 500 nM; in assay [8], less than 100 nM; in assay [5], more than 500 nM; in assay [6], less than 100 nM.

As for `C=CC(=O)Nc1cccc(-c2cccc3cnc(Nc4ccc(OC5CCN(C)CC5)cc4F)nc23)c1` [Example C141, N-(3-(2-((2-fluoro-4-((1-methylpiperidin-4-yl)oxy)phenyl)amino)quinazolin-8-yl)phenyl)acrylamide], in assay [1], the inhibition at 0.041 µM was more than 50%. The inhibition at 0.0137 µM in assay [2] was more than 50%. The IC50 in assay [2] was less than 100 nM; in assay [4] it was 100 to 500 nM; in assay [8] it was less than 100 nM; in assay [5], 100 to 500 nM; in assay [6], less than 100 nM.

In the case of `C=CC(=O)Nc1cccc(-c2cccc3cnc(Nc4ccc(NC5CCN(C)CC5F)cc4)nc23)c1` (stereo not shown) [Example C105, N-(3-(2-((4-((3-fluoro-1-methylpiperidin-4-yl)amino)phenyl)amino)quinazolin-8-yl)phenyl)acrylamide], in assay [1], the inhibition at 0.041 µM is less than 50%. The IC50 in assay [1] was less than 100 nM; in assay [2], less than 100 nM; in assay [3] it was less than 100 nM; in assay [4] it was 100 to 500 nM; in assay [8], less than 100 nM; in assay [5], less than 100 nM. For the same compound, the IC50 in assay [6] is less than 100 nM.

For the compound `C=CC(=O)Nc1cccc(-c2cccc3cnc(Nc4ccc(N5CCN(CC)CC5)cc4)nc23)c1` [Example C029, N-(3-(2-((4-(4-ethylpiperazin-1-yl)phenyl)amino)quinazolin-8-yl)phenyl)acrylamide], the inhibition at 1 µM in assay [1] (read-out: % inhibition against EGFR (Compound at 1 μM)) and in assay [2] (read-out: % inhibition against EGFR L858R/T790M (Compound at 1 μM)) was more than 50% throughout. The IC50 was 100 to 500 nM in assay [4], less than 100 nM in assay [8], more than 500 nM in assay [5] and 100 to 500 nM in assay [6].

In the case of `C=CC(=O)Nc1cccc(-c2cccc3cnc(Nc4ccc(OCCOC)cc4)nc23)c1` [Example C107, N-(3-(2-((4-(2-methoxyethoxy)phenyl)amino)quinazolin-8-yl)phenyl)acrylamide], the IC50 in assay [1] was more than 500 nM; in assay [2], less than 100 nM; in assay [3], less than 100 nM; in assay [4], less than 100 nM; in assay [5] it was 100 to 500 nM; in assay [6], less than 100 nM. Moreover, in assay [7], the “T/C (relative tumor growth rate)” value is given as 63.6%. Further, in assay [7], the “Tumor Volume Post-treatment” value is 1341.7 mm^3. Besides, the “Tumor Volume Pre-treatment” value in assay [7] is listed as 150.6 mm^3.
